In US11059832B2, “HPK1 inhibitors and methods of using same” (University Health Network, priority 2015, dated 2021):

Experiments:
human HPK1 (MAP4K1) = biological target: T1, human HPK1 (MAP4K1) (Homo sapiens, UniProt Q92918); test: HPK1 inhibition assay (indirect ELISA); assay type: biochemical; settings: GST-HPK1 0.6 nM, 12 μM ATP; read-out: IC50 Range HPK1
T1 construct: human HPK1 (aa 1-346); purchased Invitrogen PV6355
T1 sequence (Q92918 1-346): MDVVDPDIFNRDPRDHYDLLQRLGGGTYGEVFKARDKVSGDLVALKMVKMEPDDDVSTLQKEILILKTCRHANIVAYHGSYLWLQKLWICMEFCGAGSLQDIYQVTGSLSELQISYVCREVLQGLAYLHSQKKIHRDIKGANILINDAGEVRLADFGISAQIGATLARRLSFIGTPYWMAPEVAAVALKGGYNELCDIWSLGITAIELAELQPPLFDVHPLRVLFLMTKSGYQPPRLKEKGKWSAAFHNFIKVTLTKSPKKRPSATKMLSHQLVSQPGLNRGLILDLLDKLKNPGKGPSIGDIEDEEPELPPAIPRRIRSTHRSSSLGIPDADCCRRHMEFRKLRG
Protocol: Active HPK1 (MAP4K1) was purchased as an N-terminal GST fusion of human HPK1 (aa 1-346) from Invitrogen (cat #PV6355). HPK1 activity was measured using an indirect ELISA detection system. GST-HPK1 (0.6 nM) was incubated in the presence of 12 μM ATP (Sigma cat #A7699), 5 mM MOPS (pH 7.2), 2.5 mM β-glycerol-phosphate, 5 mM MgCl2, 0.4 mM EDTA, 1 mM EGTA, 0.05 mM DTT, in a 96 well microtitre plate pre-coated with 0.5 μg/well bovine myelin basic protein (MBP) (Millipore, cat #13-110). The reaction was allowed to proceed for 30 min, followed by 5 washes of the plate with Wash Buffer (phosphate buffered saline supplemented with 0.2% Tween 20), and incubation for 30 min with a 1:3000 dilution of anti-phospho-threonine rabbit polyclonal antibody (Cell Signaling cat #9381). The plate was washed 5 times with wash buffer, incubated for 30 min in the presence of goat anti-rabbit horse radish peroxidase conjugate (BioRad cat #1721019, 1:3000 concentration), washed an additional 5 times with wash buffer, and incubated in the presence of TMB substrate (Sigma cat #T0440). The colorimetric reaction was allowed to continue for 5 min, followed by addition of stop solution (0.5 N H2SO4), and quantified by detection at 450 nm with a monochromatic plate reader (Molecular Devices M5).
Compound inhibition was determined at either a fixed concentration (10 μM) or at a variable inhibitor concentration (typically 50 μM to 0.1 μM in a 10 point dose response titration). Compounds were pre-incubated in the presence of enzyme for 15 min prior to addition of ATP and the activity remaining quantified using the above described activity assay. The % inhibition of a compound was determined using the following formula; % inhibition=100×(1−(experimental value−background value)/(high activity control−background value)). The IC50 value was determined using a non-linear 4 point logistic curve fit (XLfit4, IDBS) with the formula; (A+(B/(1+((x/C)^D)))), where A=background value, B=range, C=inflection point, D=curve fit parameter.

LCK = biological target: T2, LCK (Homo sapiens, UniProt P06239); test: LCK inhibition, FRET based Z'-LYTE Kinase Assay; assay type: biochemical; settings: 25 nM LCK, 180 μM ATP; read-out: IC50 Range Lck
T2 construct: purchased Invitrogen P3043
T2 sequence (P06239 whole entry, species assumed): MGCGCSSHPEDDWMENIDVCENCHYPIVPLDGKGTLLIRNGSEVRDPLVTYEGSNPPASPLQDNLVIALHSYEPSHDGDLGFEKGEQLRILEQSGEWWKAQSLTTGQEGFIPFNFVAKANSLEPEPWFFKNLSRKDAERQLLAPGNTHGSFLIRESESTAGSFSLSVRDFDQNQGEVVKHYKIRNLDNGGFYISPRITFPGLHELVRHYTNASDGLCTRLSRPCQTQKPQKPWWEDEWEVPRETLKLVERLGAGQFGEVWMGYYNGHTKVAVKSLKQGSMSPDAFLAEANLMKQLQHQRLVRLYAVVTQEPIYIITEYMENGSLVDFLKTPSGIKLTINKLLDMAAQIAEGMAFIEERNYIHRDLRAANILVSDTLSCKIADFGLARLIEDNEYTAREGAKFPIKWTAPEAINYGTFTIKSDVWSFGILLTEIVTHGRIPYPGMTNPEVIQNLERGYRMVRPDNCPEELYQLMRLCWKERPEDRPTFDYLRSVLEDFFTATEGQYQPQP
Protocol: FLT3 and LCK compound inhibition were determined using FRET based Z′-LYTE Kinase Assay Kit with Tyrosine 2 peptide as the substrate (Invitrogen cat #PV3191). […] The % inhibition values were determined according to the manufacturer's directions and IC50 values were obtained using a non-linear 4 point logistic curve fit (XLfit4, IDBS).

SMILES	IC50 (human HPK1 (MAP4K1)) [µM]	IC50 (LCK) [µM]
Cc1cc2c(N)c(-c3nc4ccc(N5CCN(C)CC5)cc4[nH]3)c(=O)[nH]c2s1 [Example A3, 4-amino-2-methyl-5-(6-(4-methylpiperazin-1-yl)-1H-benzo[d]imidazol-2-yl)thieno[2,3-b]pyridin-6(7H)-one]	> 0.5	–
COc1csc2[nH]c(=O)c(-c3nc4ccc(N5CCN(C)CC5)cc4[nH]3)c(N)c12 [Example A5, 4-amino-3-methoxy-5-(6-(4-methylpiperazin-1-yl)-1H-benzo[d]imidazol-2-yl)thieno[2,3-b]pyridin-6(7H)-one]	> 0.5	> 0.5
CCOc1csc2[nH]c(=O)c(-c3nc4ccc(N5CCN(C)CC5)cc4[nH]3)c(N)c12 [Example A6, 4-amino-3-ethoxy-5-(6-(4-methylpiperazin-1-yl)-1H-benzo[d]imidazol-2-yl)thieno[2,3-b]pyridin-6(7H)-one]	0.05 to 0.5	–
CN1CCN(c2ccc3nc(-c4c(N[C@H]5CCOC5)c5ccsc5[nH]c4=O)[nH]c3c2)CC1 [Example A11, (S)-5-(6-(4-methylpiperazin-1-yl)-1H-benzo[d]imidazol-2-yl)-4-((tetrahydrofuran-3-yl)amino)thieno[2,3-b]pyridin-6(7H)-one]	≤ 0.05	–
CN1CCN(c2ccc3nc(-c4c(N[C@H]5C[C@@H](O)C5)c5ccsc5[nH]c4=O)[nH]c3c2)CC1 [Example A12, 4-(((1s,3s)-3-hydroxycyclobutyl)amino)-5-(6-(4-methylpiperazin-1-yl)-1H-benzo[d]imidazol-2-yl)thieno[2,3-b]pyridin-6(7H)-one]	≤ 0.05	–
CC(C)[C@H](CO)Nc1c(-c2nc3ccc(N4CCN(C)CC4)cc3[nH]2)c(=O)[nH]c2sccc12 [Example A16, (R)-4-((1-hydroxy-3-methylbutan-2-yl)amino)-5-(6-(4-methylpiperazin-1-yl)-1H-benzo[d]imidazol-2-yl)thieno[2,3-b]pyridin-6(7H)-one]	≤ 0.05	–
Cc1csc2[nH]c(=O)c(-c3nc4ccc(N5CCN(C)CC5)cc4[nH]3)c(NC3CCCC3)c12 [Example A19, 4-(cyclopentylamino)-3-methyl-5-(6-(4-methylpiperazin-1-yl)-1H-benzo[d]imidazol-2-yl)thieno[2,3-b]pyridin-6(7H)-one]	0.05 to 0.5	–
Cc1csc2[nH]c(=O)c(-c3nc4ccc(N5CCN(C)CC5)cc4[nH]3)c(NC3CCOCC3)c12 [Example A20, 3-methyl-5-(6-(4-methylpiperazin-1-yl)-1H-benzo[d]imidazol-2-yl)-4-((tetrahydro-2H-pyran-4-yl)amino)thieno[2,3-b]pyridin-6(7H)-one]	> 0.5	–
CN1CCN(c2ccc3nc(-c4c(NC5CCOCC5)c5cscc5[nH]c4=O)[nH]c3c2)CC1 [Example A25, 3-(6-(4-methylpiperazin-1-yl)-1H-benzo[d]imidazol-2-yl)-4-((tetrahydro-2H-pyran-4-yl)amino)thieno[3,4-b]pyridin-2(1H)-one]	≤ 0.05	–
CN1CCN(c2ccc3nc(-c4c(NCCN5CCOCC5)c5cscc5[nH]c4=O)[nH]c3c2)CC1 [Example A26, 3-(6-(4-methylpiperazin-1-yl)-1H-benzo[d]imidazol-2-yl)-4-((2-morpholinoethyl)amino) thieno[3,4-b]pyridin-2(1H)-one]	≤ 0.05	–
CN1CCN(c2ccc3nc(-c4c(NCc5ccccn5)c5cscc5[nH]c4=O)[nH]c3c2)CC1 [Example A28, 3-(6-(4-methylpiperazin-1-yl)-1H-benzo[d]imidazol-2-yl)-4-((pyridin-2-ylmethyl)amino)thieno[3,4-b]pyridin-2(1H)-one]	≤ 0.05	–
CN1CCN(c2ccc3nc(-c4c(O)c5sccc5[nH]c4=O)[nH]c3c2)CC1 [Example A29, 7-hydroxy-6-(6-(4-methylpiperazin-1-yl)-1H-benzo[d]imidazol-2-yl)thieno[3,2-b]pyridin-5(4H)-one]	≤ 0.05	0.05 to 0.5
Cc1cc2[nH]c(=O)c(-c3nc4ccc(N5CCN(C)CC5)cc4[nH]3)c(N)c2s1 [Example A32, 7-amino-2-methyl-6-(6-(4-methylpiperazin-1-yl)-1H-benzo[d]imidazol-2-yl)thieno[3,2-b]pyridin-5(4H)-one]	> 0.5	≤ 0.05

Now from value to compound:

IC50 (human HPK1 (MAP4K1)) [µM]	IC50 (LCK) [µM]	SMILES
≤ 0.05	–	C[C@@H]1CN(c2ccc3nc(-c4c(NC5CCCC5)c5sccc5[nH]c4=O)[nH]c3c2)C[C@H](C)N1C [Example A47, 7-(cyclopentylamino)-6-(6-(3r,5s)-rel-3,4,5-trimethylpiper-azin-1-yl)-1H-benzo[d]imidazol-2-yl)thieno[3,2-b]pyridin-5(4H)-one]
> 0.5	–	CN1CCN(c2ccc3nc(-c4c(N5CCOCC5)c5sccc5[nH]c4=O)[nH]c3c2)CC1 [Example A49, 6-(6-(4-methylpiperazin-1-yl)-1H-benzo[d]imidazol-2-yl)-7-morpholinothieno[3,2-b]pyridin-5(4H)-one]
> 0.5	> 0.5	CN1CCN(c2ccc3nc(-c4c(N5CCC(O)CC5)c5sccc5[nH]c4=O)[nH]c3c2)CC1 [Example A50, 7-(4-hydroxypiperidin-1-yl)-6-(6-(4-methylpiperazin-1-yl)-1H-benzo[d]imidazol-2-yl)thieno[3,2-b]pyridin-5(4H)-one]
≤ 0.05	–	Nc1c(-c2nc3cc(F)c(N4CCOCC4)cc3[nH]2)c(=O)[nH]c2sccc12 [Example A56, 4-amino-5-(5-fluoro-6-morpholino-1H-benzo[d]-imidazol-2-yl)-thieno-[2,3b]-pyridin-6(7H)-one]
0.05 to 0.5	0.05 to 0.5	CN1CCN(C(=O)c2ccc3[nH]c(-c4c(N)c5ccsc5[nH]c4=O)nc3c2)CC1 [Example A60, 4-amino-5-(5-(4-methylpiperazine-1-carbonyl)-1H-benzo[d]imidazol-2-yl)thieno[2,3-b]-pyridin-6(7H)-one]
0.05 to 0.5	–	Nc1c(-c2nc3cc(C(=O)N4CCOCC4)ccc3[nH]2)c(=O)[nH]c2sccc12 [Example A62, 4-amino-5-(5-(morpho-line-4-carbonyl)-1H-benzo-[d]imidazol-2-yl)thieno[2,3-b]pyridin-6(7H)-one]
≤ 0.05	–	CN1CCN(c2ccc3nc(-c4c(NC5CC5)c5sccc5[nH]c4=O)[nH]c3c2)CC1 [Example A63, 7-(cyclopropylamino)-6-(6-(4-methylpiperazin-1-yl)-1H-benzo[d]imidazol-2-yl)thieno[3,2-b]-pyridin-5(4H)-one 2,2,2-trifluroaceatate]
0.05 to 0.5	–	C[C@@H]1CN(c2ccc3nc(-c4c(N[C@H]5CCCC[C@H]5O)c5ccsc5[nH]c4=O)[nH]c3c2)C[C@H](C)O1 [Example A73]
≤ 0.05	–	COCCNc1c(-c2nc3ccc(N4CCN(C)CC4)cc3[nH]2)c(=O)[nH]c2sccc12 [Example A74, 4-((2-methoxyethyl)amino)-5-(6-(4-methylpiperazin-1-yl)-1H-benzo[d]imidazol-2-yl)thieno[2,3-b]pyridin-6(7H)-one]
≤ 0.05	–	CN1CCN(c2ccc3nc(-c4c(N[C@@H]5CCC[C@H]5O)c5cscc5[nH]c4=O)[nH]c3c2)CC1 [Example A75, 4-(((1R,2R)-2-hydroxycyclopentyl)amino)-3-(6-(4-methylpiperazin-1-yl)-1H-benzo[d]imidazol-2-yl)thieno[3,4-b]pyridin-2(1H)-one]
≤ 0.05	–	C[C@@H]1CN(c2ccc3nc(-c4c(N)c5ccsc5[nH]c4=O)[nH]c3c2)C[C@H](C)O1 [Example A76, 4-amino-5-(6-((2S,6R)-2,6-dimethylmorpholino)-1H-benzo[d]imidazol-2-yl)thieno[2,3-b]pyridin-6(7H)-one]
≤ 0.05	–	CN1CCN(c2ccc3nc(-c4c(N[C@@H]5CCCOC5)c5ccsc5[nH]c4=O)[nH]c3c2)CC1 [Example A77, (R)-5-(6-(4-methylpiperazin-1-yl)-1H-benzo[d]imidazol-2-yl)-4-((tetrahydro-2H-pyran-3-yl)amino)thieno[2,3-b]pyridin-6(7H)-one]
